Reference: patent US8232426B2, “Aminoethylaromatic compounds suitable for treating disorders that respond to modulation of the dopamine D3 receptor” (Abbott GmbH & Co. KG, priority 2004, dated 2012)
Counter-ions that a name gives are not always drawn. Like-named read-outs stand apart in the source and are kept apart here.

Tests used:
[1] = target: T1, human dopamine D2L receptors (long isoform) (Homo sapiens, UniProt P14416); assay: Dopamine D2L receptor binding ([125I] iodospiperone displacement); settings: selectivity ratio of receptor binding constants, D2L versus D3, HEK-293 membranes
T1 construct: expressed in transfected cells; host or cells: HEK-293
T1 sequence (P14416 whole entry, canonical isoform): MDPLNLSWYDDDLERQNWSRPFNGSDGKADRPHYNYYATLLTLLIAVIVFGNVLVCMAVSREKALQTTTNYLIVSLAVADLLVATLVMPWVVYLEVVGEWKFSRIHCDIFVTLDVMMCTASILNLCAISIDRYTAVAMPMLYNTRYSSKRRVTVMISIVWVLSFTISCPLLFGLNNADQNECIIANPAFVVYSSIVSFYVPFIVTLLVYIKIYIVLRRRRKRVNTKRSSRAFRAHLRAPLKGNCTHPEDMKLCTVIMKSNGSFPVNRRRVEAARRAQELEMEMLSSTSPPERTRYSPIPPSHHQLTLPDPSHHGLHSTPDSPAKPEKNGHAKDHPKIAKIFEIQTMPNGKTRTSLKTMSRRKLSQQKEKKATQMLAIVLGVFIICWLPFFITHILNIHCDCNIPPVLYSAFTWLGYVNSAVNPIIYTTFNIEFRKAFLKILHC
Procedure: (§1) Each assay mixture was run in triplicate. • The incubation buffer contained 50 mM tris, 120 mM NaCl, 5 mM KCl, 2 mM CaCl2, 2 mM MgCl2 and 0.1% bovine serum albumin, 10 μM quinolone and 0.1% ascorbic acid (prepared fresh daily). […] Each assay mixture was run in triplicate. • The incubation buffer contained 50 mM tris, 120 mM NaCl, 5 mM KCl, 2 mM CaCl2, 2 mM MgCl2 and 0.1% bovine serum albumin. The buffer was adjusted to pH 7.4 with HCl. • Measurement and Analysis: • After having been incubated at 25° C. for 60 minutes, the assay mixtures were filtered through a Whatman GF/B glass fiber filter under vacuum using a cell collecting device. The filters were transferred to scintillation viols using a filter transfer system. After 4 ml of Ultima Gold® (Packard) have been added, the samples were shaken for one hour and the radioactivity was then counted in a Beta-Counter (Packard, Tricarb 2000 or 2200CA).

[2] = target: T2, human dopamine D3 receptors (Homo sapiens, UniProt P35462); assay: Dopamine D3 receptor binding ([125I]-iodosulpride displacement)
T2 construct: expressed in transfected cells; host or cells: HEK-293
T2 sequence (P35462 whole entry): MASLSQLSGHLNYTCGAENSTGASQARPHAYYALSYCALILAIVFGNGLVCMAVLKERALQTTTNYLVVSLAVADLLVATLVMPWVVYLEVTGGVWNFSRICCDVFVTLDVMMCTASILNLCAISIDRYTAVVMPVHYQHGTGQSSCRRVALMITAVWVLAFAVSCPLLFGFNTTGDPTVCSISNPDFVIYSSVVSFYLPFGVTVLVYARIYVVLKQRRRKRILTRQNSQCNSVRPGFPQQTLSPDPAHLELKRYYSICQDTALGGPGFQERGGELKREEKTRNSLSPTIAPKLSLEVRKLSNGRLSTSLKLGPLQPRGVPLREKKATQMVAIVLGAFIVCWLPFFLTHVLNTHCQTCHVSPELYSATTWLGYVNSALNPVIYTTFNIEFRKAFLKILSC
Procedure: as §1

[3] = membranes of HEK-293 cells stably expressing human D3 receptor, 0.1 nM [125I]-iodosulpride, 25° C., 60 minutes, read-out: Ki(D3)*

| Ki [2, 3] [nM] | SMILES | Ki(D2)*/Ki(D3)* [1] | Ki [2] [nM] |
| --- | --- | --- | --- |
| 0.2 | CCCN(CCC)CCc1ccc(NS(=O)(=O)c2ccc(C(C)C)cc2)cc1 [Example 8, N-[4-(2-Dipropylamino-ethyl)-phenyl]-4-isopropyl-benzenesulfonamide×HCl] | 54 | – |
| – | C=CCNCCc1cccc(NS(=O)(=O)c2ccc(C(C)C)cc2)c1 [Example 21, N-[3-(2-Allylamino-ethyl)-phenyl]-4-isopropyl-benzenesulfonamide, reference compound] | 62 | 22 |
| – | CCCN(CCC)CCc1ccc(CS(=O)(=O)c2ccc(OC(F)(F)F)cc2)cc1 [Example 26, Dipropyl-{2-[4-(4-trifluoromethoxy-benzenesulfonylmethyl)-phenyl]-ethyl}-dipropyl-amine×HCl] | 170 | 3.9 |
| 2.7 | C=CCN(CC=C)CCc1ccc(NS(=O)(=O)c2ccc(C(C)C)cc2)cc1 [Example 19, N-[4-(2-Diallylamino-ethyl)-phenyl]-4-isopropyl-benzenesulfonamide×HCl] | 42 | – |
| – | CCCN[C@@H](C)Cc1ccc(NS(=O)(=O)c2ccc(OC(F)(F)F)cc2)cc1 [Example 1, N-[4-((S)-2-Propylamino-propyl)-phenyl]-4-trifluoromethoxy-benzenesulfonamide] | 41 | 43 |
| 0.58 | CCCN1CCCC1Cc1ccc(NS(=O)(=O)c2ccc(C(C)C)cc2)cc1 (centres unmarked) [Example 11, 4-Isopropyl-N-[4-(1-propyl-pyrrolidin-2-ylmethyl)-phenyl]-benzenesulfonamide] | 16 | – |
| 42 | CCCNCCc1ccc(NS(=O)(=O)c2ccc(C(C)C)cc2)cn1 [Example 10, 4-Isopropyl-N-[6-(2-propylamino-ethyl)-pyridin-3-yl]-benzenesulfonamide×2HCl] | 53 | – |
| – | C=CCN(CC=C)CCc1ccc(CS(=O)(=O)c2ccc(C(C)C)cc2)cc1 [Example 23, Diallyl-{2-[4-(4-isopropyl-benzenesulfonylmethyl)-phenyl]-ethyl}-amine×HCl] | 59 | 8.4 |
| 18 | CC(C)c1ccc(S(=O)(=O)Nc2ccc(CCNCC3CC3)cc2)cc1 [Example 7, N-{4-[2-(Cyclopropylmethyl-amino)-ethyl]-phenyl}-4-isopropyl-benzenesulfonamide×HCl] | 23 | – |
| 0.5 | CCCN(CCC)CCc1ccc(CS(=O)(=O)c2ccc(C(C)C)cc2)cc1 [Example 25, Dipropyl-{2-[4-(4-isopropyl-benzenesulfonylmethyl)-phenyl]-ethyl}-amine×HCl] | 175 | – |
| 2 | CCCN(CCC)CCc1ccc(N(C)S(=O)(=O)c2ccc(C(C)C)cc2)cc1 [Example 9, N-[4-(2-Dipropylamino-ethyl)-phenyl]-4-isopropyl-N-methyl-benzenesulfonamide×HCl] | 40 | – |
| 64 | C=CCN(CC=C)CCc1ccc(NS(=O)(=O)c2ccc(OC(F)(F)F)cc2)cc1 [Example 20, N-[4-(2-Diallylamino-ethyl)-phenyl]-4-trifluoromethoxy-benzenesulfonamide×HCl] | 65 | – |
| 4.8 | CCCNCCc1ccc(CS(=O)(=O)c2ccc(C(C)C)cc2)cc1.Cl [Example 28, {2-[4-(4-Isopropyl-benzenesulfonylmethyl)-phenyl]-ethyl}-propyl-amine×HCl] | 130 | – |
| 34 | C=CCNCCc1ccc(N(C)S(=O)(=O)c2ccc(OC(F)(F)F)cc2)cc1 [Example 17, N-[4-(2-Allylamino-ethyl)-phenyl]-N-methyl-4-trifluoromethoxy-benzenesulfonamide×HCl] | 75 | – |
| – | CCCN[C@H](C)Cc1ccc(NS(=O)(=O)c2ccc(OC(F)(F)F)cc2)cc1 [Example 2, N-[4-((R)-2-Propylamino-propyl)-phenyl]-4-trifluoromethoxy-benzenesulfonamide] | 57 | 21 |

| SMILES | Ki [2, 3] [nM] | Ki(D2)*/Ki(D3)* [1] | Ki [2] [nM] |
| --- | --- | --- | --- |
| CCCNC(C)Cc1ccc(NS(=O)(=O)c2ccc(C(C)C)cc2)cc1.Cl (centres unmarked) [Example 3, 4-Isopropyl-N-[4-(2-propylamino-propyl)-phenyl]-benzenesulfonamide×HCl] | 2.8 | 33 | – |
| C=CCNCCc1ccc(N(CCC)S(=O)(=O)c2ccc(OC(F)(F)F)cc2)cc1.Cl [Example 18, N-[4-(2-Allylamino-ethyl)-phenyl]-N-propyl-4-trifluoromethoxy-benzenesulfonamide×HCl] | 37 | 24 | – |
| C=CCNCCc1ccc(NS(=O)(=O)c2ccc(OC(F)(F)F)cc2)cc1.Cl [Example 16, N-[4-(2-Allylamino-ethyl)-phenyl]-4-trifluoromethoxy-benzenesulfonamide×HCl] | 31 | 79 | – |
| CCCNCCc1ccc(NS(=O)(=O)c2ccc(C(C)C)cc2)cc1.Cl [Example 6, 4-Isopropyl-N-[4-(2-propylamino-ethyl)-phenyl]-benzenesulfonamide×HCl] | 2.2 | 22 | – |
| C=CCNCCc1ccc(N(C)S(=O)(=O)c2ccc(C(C)C)cc2)cc1.Cl [Example 14, N-[4-(2-Allylamino-ethyl)-phenyl]-4-isopropyl-N-methyl-benzenesulfonamide×HCl] | 27 | 40 | – |
| C=CCNCCc1ccc(NS(=O)(=O)c2ccc(C(C)C)cc2)cc1.Cl [Example 13, N-[4-(2-Allylamino-ethyl)-phenyl]-4-isopropyl-benzenesulfonamide×HCl] | 1.7 | 74 | – |
| C=CCNCCc1ccc(N(CCC)S(=O)(=O)c2ccc(C(C)C)cc2)cc1.Cl [Example 15, N-[4-(2-Allylamino-ethyl)-phenyl]-4-isopropyl-N-propyl-benzenesulfonamide×HCl] | 22 | 22 | – |
